In assay [1] the test system is human dermal fibroblasts (HDFs). The experiment in a line: Intracellular ROS (DCF fluorescence, flow cytometry) in adriamycin-treated HDFs. Format: cell-based. The note with it: Q3GA 10 μg/ml, 3 days. Here is the method:
(§1) FIG. 4 represents the effect of Q3GA on intracellular ROS levels increased by adriamycin treatment in HDFs. Young cells (1.5×10^5) treated with or without adrimcyin were seeded in 60 mm culture dishes and incubated for 24 h. Following treatment of cells with 10 µg/mL of Q3GA, 0.5% DMSO, 5 mM NAC, or 500 nM rapamcyin for 3 days, cells were loaded with 250 µM H2DCFDA for 20 min. The DCF fluorescence intensity of each population of 10,000 cells was measured by flow cytometry. Representative data from three independent experiments are shown. Median fluorescence intensities were obtained and compared. Values are means±SDs from 3 independent experiments. NT, not treated with adrimycin; ADR, adriamcyin; C, control; D, dimethyl sulfoxide; N, 5 mM N-acetylcysteine; R, 500 nM rapamycin. *p<0.05 vs DMSO.
(§2) Each cells were divided into a 100 mm culture dish to the cell number of 1.5×10^5, and then cultured at 37° C. in a 5% CO2 incubator for 3 days. The cells were washed two times with DMEM medium containing antibiotics, and then adriamycin 500 nM was treated thereto for 4 hours. The cells were separated by treating trypsin-EDTA solution (2.5%), and then divided again into a 60 mm culture dish to the cell number of 1×10^5 followed by culturing at 37° C. in a 5% CO2 incubator. […] ROS was measured by using BD FACS Canto II flow cytometry (BD Biosciences, San Jose, Calif.).

Assay [2] shares this test system. The experiment in a line: Replicative senescence, SA-β-gal activity staining, old HDFs. As to conditions: old HDFs (PD>75); increasing Q3GA concentration; 3 days; concentration-dependent. Format: cell-based. Here is the method: FIG. 6 represents the effect of Q3GA on replicative senescence of HDFs. Old cells (3×10^4/well) were seeded in 6 well plates and incubated with or without 10 µg/mL of Q3GA for 3 days. Cellular senescence was assessed by SA-β-gal activity staining. Representative pictures of 3 independent experiments are shown. Percentages of SA-β-gal positive cells were measured. Values are means±SDs from 3 independent experiments. O, old cells; D, dimethyl sulfoxide; N, 5 mM N-acetylcysteine; R, 500 nM rapamycin. *p<0.05 or **p<0.05 vs DMSO.
(§3) HDFs in DMEM with 10% FBS and 1% antibiotics (penicillin 10,000 unit/mL and streptomycin […]) were seeded at 1×10^5 cells per 100 mm culture plate and incubated at 37° C. in 5% CO2 humidified air. When subcultures reached 80-90% confluence, serial passaging was performed by trypsinization. HUVECs in EGM-2 media were cultured under the same conditions. The number of population doublings (PDs) was monitored for further experiments. PD was calculated using the geometric equation: PD=log 2F/log 2I (F, final cell number; I, initial cell number). HDFs in PD<35 and HUVECs in PD<30 were used for adriamycin-induced cellular senescence. HDFs in PD>75 and HUVECs in PD>50 were used as old cells under replicative senescence.
The effect of single component on cellular senescence was examined by SA-β-gal activity staining. […]

Assay [3] deals with human umbilical vein endothelial cells (HUVECs). The experiment in a line: Intracellular ROS (DCF fluorescence, flow cytometry) in adriamycin-treated HUVECs. The format is cell-based. The note with it: Q3GA 10 μg/ml, 3 days. The method, then: as §1, with “FIG. 5” for “FIG. 4”, “in HUVECs.” for “in HDFs.”
as §2
(In flow cytometry, cells or beads pass a laser one at a time.)

Assay [4] shares this test system. The experiment in a line: Replicative senescence, SA-β-gal activity staining, old HUVECs. The format is cell-based. As to conditions: old HUVECs (PD>50); increasing Q3GA concentration; 3 days; concentration-dependent. Here is the method: FIG. 7 represents the effect of Q3GA on replicative senescence of HUVECs. […] Cellular senescence was assessed by SA-β-gal activity staining. Representative pictures of 3 independent experiments are shown. Percentages of SA-β-gal positive cells were measured. Values are means±SDs from 3 independent experiments. O, old cells; D, dimethyl sulfoxide; N, 5 mM N-acetylcysteine; R, 500 nM rapamycin. *p<0.05 or **p<0.05 vs DMSO.
as §3
The effect of single component on cellular senescence was examined by SA-β-gal activity staining. Each single component was treated in a 24-well culture plate or a 12-well culture plate for 3 days, and then the cells were washed with phosphate buffer. […]

The test system of assay [5] is p53. The experiment in a line: Western blot of p53 in adriamycin-treated HDFs. The format is cell-based, human. As to conditions: Q3GA 1 h prior to adriamycin 500 nM 4 h, concentration-dependent. Here is the method:
(§4) FIG. 3 represents the effect of Q3GA on the expression levels of p53, pS6K, and p21 proteins in HDFs and HUVECs treated with adriamycin. Cells were treated with the indicated concentrations of Q3GA for 1 h prior to adriamycin treatment and incubated for 4 h. Proteins from cells were extracted and separated. The expression levels of each protein were analyzed by Western blotting. Representative data of 3 independent experiments are shown. NT, not treated with adrimycin; ADR, adriamcyin; C, control; D, dimethyl sulfoxide; N, 5 mM N-acetylcysteine; R, 500 nM rapamycin.
(§5) Each cells were divided into a 60 mm culture dish to the cell number of 1×10^5, and then cultured at 37° C. in a 5% CO2 incubator. […] The amount of the protein in the solution was quantified by bicinchoninic acid (BCA) method (Pierce Biotechnology Inc., Rockford Ill., USA) by using bovine serum albumin as a standard protein.
(§6) Protein (30 μg) was separated by being electrophoresed through a 10% SDS-polyacrylamide gel. […] The membrane was washed five times with TTBS for every 5 min, and then the amounts of p53, p21 and pS6 were measured by using an enhanced chemiluminescence solution. The amount of the specific protein reacted with each antibody was measured by using a LAS-3000 imaging system (Fujifilm Corp., Stanford, Conn., USA). […]
For orientation: Immunoblotting shows a protein as a band on a membrane.

The subject of assay [6] is human umbilical vein endothelial cells (HUVECs). The experiment in a line: Adriamycin-induced cellular senescence, SA-β-gal activity staining, HUVECs. As to conditions: 3 days. Format: cell-based. The method, then:
(§7) FIG. 2 represents the effect of quercetin-3-O-β-D-glucuronide (Q3GA) on adriamycin-induced cellular senescence in human umbilical vein endothelial cells (HUVECs). Cells treated with 500 nM adriamycin for 4 h were seeded at 1,000 cells/well in 96 well plates. After treatment with increasing concentrations of Q3GA, cells were incubated for 3 days and cellular senescence assessed by SA-β-gal activity staining. SA-β-gal activity staining (Left) and percentages of SA-β-gal positive cells in HUVECs (Right). Representative SA-β-gal staining pictures of 3 independent experiments are shown. Values are means±SDs from 3 independent experiments measured in triplicates. C, control; D, dimethyl sulfoxide; N, 5 mM N-acetylcysteine; R, 500 nM rapamycin. *p<0.05 or **p<0.01 vs DMSO.
HDFs in DMEM with 10% FBS and 1% antibiotics (penicillin 10,000 unit/mL and streptomycin […]) were seeded at 1×10^5 cells per 100 mm culture plate and incubated at 37° C. in 5% CO2 humidified air. When subcultures reached 80-90% confluence, serial passaging was performed by trypsinization. HUVECs in EGM-2 media were cultured under the same conditions. The number of population doublings (PDs) was monitored for further experiments. PD was calculated using the geometric equation: PD=log 2F/log 2I (F, final cell number; I, initial cell number). […]

The subject of assay [7] is human dermal fibroblasts (HDFs). The experiment in a line: Adriamycin-induced cellular senescence, SA-β-gal activity staining, HDFs. The format is cell-based. The note with it: 3 days. The method, then:
as §7, with “1” for “2”, “dermal fibroblasts (HDFs).” for “umbilical vein endothelial cells (HUVECs).”, “500” for “1,000”, “HDFs” for “HUVECs”
as §3, with “HDFs in PD>75 and HUVECs in PD>50 were used as old cells under replicative senescence.” left out

In assay [8] the test system is p21. The experiment in a line: Western blot of p21 in adriamycin-treated HDFs. Format: cell-based, human. As to conditions: Q3GA 1 h prior to adriamycin 500 nM 4 h, concentration-dependent. Here is the method: as §4, §5, §6
In assay [9] the test system is p53. The experiment in a line: Western blot of p53 in adriamycin-treated HUVECs. The format is cell-based, human. As to conditions: Q3GA 1 h prior to adriamycin 500 nM 4 h, concentration-dependent. The method, then: as §4, §5, §6
Assay [10] concerns p21. The experiment in a line: Western blot of p21 in adriamycin-treated HUVECs. Format: cell-based, human. The note with it: Q3GA 1 h prior to adriamycin 500 nM 4 h, concentration-dependent. Here is the method: as §4, §5, §6
[11] abbreviates: Q3GA 10 μg/ml, adriamycin 500 nM 4 h.
[12] abbreviates: increasing concentrations of Q3GA.

Consider `O=C(O)[C@H]1O[C@@H](Oc2c(-c3ccc(O)c(O)c3)oc3cc(O)cc(O)c3c2=O)[C@H](O)[C@@H](O)[C@@H]1O` [Q3GA, quercetin-3-O-β-D-glucuronide], for which the “intracellular ROS levels augmented by adriamycin (DCF fluorescence intensity)” value in assay [1] and in [3] was “decreased intracellular ROS levels” throughout. Also, the “SA-β-gal activity under replicative senescence” value in assay [2] and in assay [4] was “decreased SA-β-gal activity” in each case. Moreover, the “level of p53 protein increased by adriamycin” value in [5] and in [9] was “reduced” throughout. In addition, the “SA-β-gal activity staining increased by adriamycin” value in [6] (setting [11]) and in assay [7] (setting [11]) was “reduced by Q3GA treatment” throughout. Besides, the “SA-β-gal activity increased by adriamycin, concentration dependence” value in [6] (setting [12]) and in assay [7] (setting [12]) was “reduced as Q3GA concentration was increased” throughout. Further, the “level of p21 protein increased by adriamycin” value in assay [8] and in [10] was “reduced” throughout.
